According to publication PMC7725785, “TRIB3 promotes MYC-associated lymphoma development through suppression of UBE3B-mediated MYC degradation” (Nature Communications, 2020):
Values joined by “and” are separate entries in the source; they are usually repeats but may differ in a detail not shown here. Identical values can stand only once.

Columns and labels:
[1] = system: primary human DLBCL cells (T69); assay: Serial colony formation (P1, P2) in methylcellulose, primary human DLBCL cells (T69); assay type: cell-based; conditions: also Raji and Jurkat (Fig. 6o, Supplementary Fig. 7r, s), result in words
From the text: Mouse and human lymphoma cells formed colonies upon serum culture (P1). Single colonies of lymphoma cells were dispersed in methylcellulose-based medium MethoCul^TM M3630 (StemCell, 03630) or MethoCult™SF H4536 (StemCell, 04536). A representative plate was then washed and cells were resuspended and replated. After an additional 14 days, colonies were counted (P2).

[2] = system: MYC transcriptional activity; assay: E-box luciferase reporter assay of MYC transcriptional activity in Raji cells; assay type: cell-based, human; conditions: 24 h after transfection, versus PCON, result in words
Procedure: Cells were seeded in 12-well plates and transfected with E-box-dependent luciferase reporters (Yeasen Inc.) using VigoFect (Vigorous Biotechnology Beijing, China). pTK-Renilla was used as an internal control. Luciferase activity was measured 20–24 h after transfection using the Dual-luciferase Reporter Assay System (Promega, USA).

[3] = system: TRIB3 with AKT, p62, COP1, and PML; assay: Co-IP of TRIB3/AKT, TRIB3/p62, TRIB3/COP1, TRIB3/PML (off-target); assay type: cell-based; conditions: result in words
Procedure: (§1) Co-IP experiments were performed as described previously. Briefly, cells were collected and lysed for 30 min on ice. Soluble lysates were incubated with the indicated antibodies at 4 °C overnight, followed by incubation with Protein A/G Plus-Agarose (Santa Cruz Biotechnology, TX, USA) at 4 °C for 2 h. Soluble lysates were incubated with the indicated Anti-Myc magnetic beads (Bimake.com, B26302), Anti-Flag Affinity Gel (Bimake.com, B23102) or Anti-HA Affinity Gel (Bimake.com, B23302) at 4 °C overnight. Immunocomplexes were separated from the beads and then boiled for 10 min. The precipitated proteins were subjected to SDS-PAGE and blotted with specific antibodies. For immunoblotting assays, proteins were extracted from cells, spleens, or lymphoma tissues using RIPA buffer (Cell Signaling Technology, MA, USA). A BCA Protein Assay Kit was used to determine protein concentrations. Protein extracts were separated by SDS-PAGE, transferred onto PVDF membranes, and subjected to immunoblot analysis. Western blot images were captured by a Tanon 5200 chemiluminescent imaging system (Tanon, Shanghai, Beijing). Human lymphoma and benign LN paraffin tissue microarrays were purchased from US Biomax (LM482a).

PTCL^T144 PDX = assay: PDX model tumor growth and weight, PTCL T144; assay type: in vivo, human; conditions: result in words
Procedure: (§2) Four 5-week-old male NSG mice were implanted subcutaneously with 200 μl of a 1:1 mixture of Matrigel® Basement Membrane Matrix High Concentration (Corning, 354230) and minced fresh tumor fragments resected from lymphoma patients. Approximately 3–4 weeks following implantation, the first-generation mice (G1) were killed, and tumor masses were isolated. The tumor cells were tested for human CD19 (BCL) or CD3 expression (T cell lymphoma), and the remaining tumor mass was cut into 3-mm^3 sections and passaged into 4–5 NSG mice as the second generation (G2). After stable passage of the third generation (G3), the tumor mass of the fourth generation (G4) was equally cut into 3-mm^3 pieces and then passaged subcutaneously into 30–50 NSG mice (100 μl of a 1:2 mixture of Matrigel and tumor tissue) for in vivo treatment (6–8 mice per group, dependent on the experimental drug treatment). During and after treatment with the vehicle control or the indicated agent, tumor burden was evaluated by measuring the tumor volume to determine the therapeutic efficacy in the PDX models. […]
(§3) To evaluate the survival rate, these mice were monitored for 8 months (Myc^Eμ mice). […] During the indicated treatments, tumor burden was evaluated by measuring the tumor volume to determine the therapeutic efficacy in the PDX models.

DLBCL^T69 PDX = assay: PDX model tumor growth and weight, DLBCL T69; assay type: in vivo, human; conditions: result in words
Procedure: as §2, §3

DLBCL^T64 PDX = assay: PDX model tumor growth and weight, DLBCL T64; assay type: in vivo, human; conditions: result in words
Procedure: as §2, §3

[4] = system: lymphoma and leukemia cells; assay: Cell viability (CCK-8) of lymphoma and leukemia cells with PCM4; assay type: cell-based, human; conditions: result in words
Raji cells = assay: Cell viability (CCK-8) of Raji cells with PCM4 and DOX; assay type: cell-based, human; conditions: result in words
[5] = system: TRIB3-MYC interaction and MYC expression; assay: TRIB3/MYC Co-IP and MYC immunoblot in spleens and LNs of treated Myc^Eμ mice; assay type: in vivo, mouse; conditions: Myc^Eμ mice; result in words
Procedure: To evaluate the survival rate of secondary recipients, these mice were monitored for 70 days. For the evaluation of IHC staining and protein expression, three mice of each group were killed at the end of treatment, and the thymuses, spleens and LNs were collected for pathology detection, Co-IP, and western blot assays.
as §1, with “Western blot images were captured by a Tanon 5200 chemiluminescent imaging system (Tanon, Shanghai, Beijing). Human lymphoma and benign LN paraffin tissue microarrays were purchased from US Biomax (LM482a).” left out

MYC and UBE3B = assay: MYC/UBE3B colocalized foci in Raji cells; assay type: cell-based, human
Procedure: A total of 1 × 10^6 cells were seeded overnight in a six-well plate. […] The cells were then treated with the Duolink In Situ Red Starter Mouse/Rabbit kit (Sigma Aldrich, DUO92101-1KT) according to the manufacturer’s instructions. Images were captured with an OLYMPUS confocal microscope.
For immunofluorescence staining, cells seeded on coverslips were briefly washed with PBS and fixed with 4% buffered paraformaldehyde for 15 min, permeabilized with 0.5% Triton X- 100 for 15 min, blocked with 3% BSA for 30 min at 37 °C, and stained with specific primary antibodies followed by corresponding secondary antibodies. Nuclei were counterstained with DAPI. Images were captured using a confocal fluorescent microscope (Olympus Microsystems, CA, USA). Quantitative image analysis was performed with the Imaris 9.3.1 software. Pearson’s coefficient was use to analyze colocalization between two target proteins.

Myc^Eμ BCL mice = assay: Kaplan-Meier survival of Myc^Eμ BCL mice treated with DOX and peptide; assay type: in vivo, mouse; conditions: DOX 2 mg/kg i.p. once a week and PCM4 5 mg/kg i.v. three times a week, 3 months, result in words
Procedure: as §3

DLBCL^T156 PDX = assay: PDX model tumor growth and weight, DLBCL T156; assay type: in vivo, human; conditions: result in words
Procedure: as §2, §3

In the case of “HLYVSPWGGKRREQLKHKLEQLR [PCM4, fused peptide generated by linking CM4 to a cell-penetrating peptide]”, the “intrinsic clonogenicity of human lymphoma cells” value [1] is reported as “reduced the intrinsic clonogenicity”, the MYC transcriptional activity [2] is reported as “reduced MYC transcriptional activity” and the “off-target: interactions of TRIB3 with AKT, p62, COP1, and PML” value [3] is reported as “did not disturb the interactions of TRIB3 with these proteins”. For the same sequence, the “growth and weights of tumors, combination of PCM4 and DOX” value (“growth and weights of tumors” below) (PTCL^T144 PDX; PDX T144 (high TRIB3 and MYC expression), PCM4 5 mg/kg and DOX 2 mg/kg) was “further decreased the growth and weights of tumors”, the “tumor growth of PDX” value (PTCL^T144 PDX; PDX T144, NSG mice, PCM4 5 mg/kg i.v. three times a week) was “inhibited the tumor growth” and the “growth and weights of tumors” value (DLBCL^T69 PDX; PDX T69 (high TRIB3 and MYC expression), PCM4 5 mg/kg and DOX 2 mg/kg) was “further decreased the growth and weights of tumors”. The “tumor growth of PDX” value (DLBCL^T69 PDX; PDX T69, NSG mice, PCM4 5 mg/kg i.v. three times a week) was “inhibited the tumor growth”, the “growth and weights of tumors” value (DLBCL^T64 PDX; PDX T64 (high TRIB3 and MYC expression), PCM4 5 mg/kg and DOX 2 mg/kg) was “further decreased the growth and weights of tumors” and the “tumor growth of PDX” value (DLBCL^T64 PDX; PDX T64, NSG mice, PCM4 5 mg/kg i.v. three times a week) was “inhibited the tumor growth”. The “proliferation of lymphoma and leukemia cells” value [4] was “inhibited the proliferation of most lymphoma and leukemia cells in a time-dependent manner”, the “effect on Raji cell proliferation in combination with doxorubicin (DOX)” value (Raji cells) was “synergistically inhibited Raji cell proliferation” and the “TRIB3-MYC interaction and MYC expression in the LNs and spleens” value [5] was “decrease in the TRIB3-MYC interaction and MYC expression”. For the same sequence, the “Fig 6f. MYC/UBE3B foci per cell” value (MYC and UBE3B; 30 Min, single cells, n = 20) was 12 and 11, the “interaction of MYC and UBE3B” value (MYC and UBE3B; result in words) was “rescued the interaction of MYC and UBE3B” and the “therapeutic efficacy / survival rate in combination with DOX” value (Myc^Eμ BCL mice) was “enhanced the therapeutic efficacy of DOX”. The “growth and weights of tumors” value (DLBCL^T156 PDX; PDX T156 (high TRIB3 and MYC expression), PCM4 5 mg/kg and DOX 2 mg/kg) was “further decreased the growth and weights of tumors” and the “tumor growth of PDX” value (DLBCL^T156 PDX; PDX T156, NSG mice, PCM4 5 mg/kg i.v. three times a week) was “inhibited the tumor growth”.
